Values quoted from earlier work in patent US11485730B2, “Compositions and methods for the treatment of fungal infections” (Cellix Bio Private Limited, priority 2016, dated 2022).
Like-named read-outs stand apart in the source and are kept apart here.

How the values were obtained:
[1] = system: various oral pathogenic microorganisms
[2] = among the long-chain fatty acids
[3] = system: oral streptococci and periodontopathogens

CCCCC/C=C\C/C=C\C/C=C\CCCCC(=O)O [GLA, gamma linoleic acid]
anti-microbial activity ([1]; in vitro studies, various oral pathogenic microorganisms): significant anti-microbial activity
antimicrobial activities ([1]; various oral microorganisms, including S. mutans, A. actinomycetemcomitans, C. albicans, P. gingivalis, F. nucleatum, S. gordonii): antimicrobial activities
antimicrobial activity [2]: greatest antimicrobial activity
bactericidal concentration ([3]; n-6 fatty acids): 25 µg/mL

CCCCC/C=C\C/C=C\C/C=C\C/C=C\CCCC(=O)O [arachidonic acid]
antimicrobial activity [2]: greatest antimicrobial activity

CCCCC/C=C\C/C=C\CCCCCCCC(=O)O [linoleic acid]
antimicrobial activity [2]: greatest antimicrobial activity
bactericidal concentration [3]: 25 µg/mL
MIC (Candida Species): 450 µM
MIC (Candida Species; printed as corresponding to 0.45 μmoles/ml): 0.13 µg/mL
activity against C. albicans (C. albicans): < 40%

CCCCCCCCCCCCCCCC(=O)O [palmitic acid]
antimicrobial activity [2]: greatest antimicrobial activity

CCCCCC/C=C\CCCCCCCC(=O)O [palmitoleic acid]
antimicrobial activity [2]: greatest antimicrobial activity
